How the values were obtained:
CYP2C19 = target: T1, CYP2C19 (Homo sapiens, UniProt P33261); assay: P450-Glo CYP screening kit, CYP2C19 inhibition; type: in vitro ADME; conditions: luminescence, read-out: IC50 2C19
T1 construct: purchased Promega
Text: (§1) P450-Glo™ CYP Screening Kits for CYP1A2, CYP3A4 and CYP2C19 were purchased from Promega. […] Luminescence was quantified using a Victor 3 spectrophotometer (PerkinElmer).

CYP1A2 = target: T2, CYP1A2 (Homo sapiens, UniProt P05177); assay: P450-Glo CYP screening kit, CYP1A2 inhibition; type: in vitro ADME; conditions: luminescence, read-out: IC50 1A2
T2 construct: purchased Promega
T2 sequence (P05177 1-516): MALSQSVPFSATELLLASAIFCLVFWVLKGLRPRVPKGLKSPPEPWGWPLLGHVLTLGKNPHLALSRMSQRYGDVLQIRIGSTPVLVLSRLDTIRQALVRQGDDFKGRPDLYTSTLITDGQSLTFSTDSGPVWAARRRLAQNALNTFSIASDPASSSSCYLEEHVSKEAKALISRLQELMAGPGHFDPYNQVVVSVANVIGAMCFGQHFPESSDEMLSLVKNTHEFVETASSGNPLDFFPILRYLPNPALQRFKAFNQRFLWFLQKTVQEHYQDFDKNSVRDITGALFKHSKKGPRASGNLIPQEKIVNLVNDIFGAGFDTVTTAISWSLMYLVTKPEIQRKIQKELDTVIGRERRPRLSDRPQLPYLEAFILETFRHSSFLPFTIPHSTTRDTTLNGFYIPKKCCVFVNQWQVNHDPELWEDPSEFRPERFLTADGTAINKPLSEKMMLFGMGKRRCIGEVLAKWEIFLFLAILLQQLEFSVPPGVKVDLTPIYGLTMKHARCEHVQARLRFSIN
Text: as §1

beagle dogs = assay: Urinary glucose excretion in beagle dogs; type: in vivo; conditions: 0.03 mg/kg oral, glucose 2 g/kg 1 h post dose; for Urinary Glucose Excretion in Dogs, 0-8 h (mean ± SD): 0-8 h (Table 4); for Urinary Glucose Excretion in Dogs, 0-24 h (mean ± SD): 0-24 h (Table 4)
Experimental: Each test compound was dissolved in 10% PEG400 and administered orally to overnight-fasted beagle dogs by gavage at the dose level of 0.03 mg/kg. Control dogs were given 10% PEG400 only. One hour post dosing, glucose solution (2 g/kg, 5 mL/kg) was administered by oral gavage. Urine was collected within metabolic cages from 0 to 8 hours, and 8 to 24 hours post-dosing for urine volume and glucose measurement. Food was removed 16 hours before dosing and then provided 3 hours after dosing. Water was supplied ad libitum. The concentration of urinary glucose was determined at 8 hours and 24 hours post-dose using a biochemistry analyzer.

[1] = Pharmacokinetic parameters in SD rats; type: in vivo, Sprague-Dawley rats; conditions: single oral 3 mg/kg in 30% PEG400, plasma; for CL/F / AUC(0-t): Sprague-Dawley, rat; for AUC(0-t): read-out: AUC0-t (mean ± SD)
Experimental: The pharmacokinetic study of each test compound was conducted in 4 Sprague-Dawley rats following a single oral administration of 3 mg/kg of the compound. The dose was prepared by dissolving test article in appropriate volume of 30% PEG400. The plasma samples were collected from the orbital plexus at 0.083, 0.25, 0.50, 1.0, 2.0, 4.0, 6.0, 8.0, 12 and 24 hours post dose, and the plasma concentrations were determined by a developed LC-MS/MS method.

[2] = Metabolism in SD rats: distribution of metabolites in urine; type: in vivo; conditions: male SD rats, 50 mg/kg oral, five consecutive days, HPLC
Experimental: Each test compound was dissolved in 30% PEG400 and administered orally to male SD rats by gavages at the dose level of 50 mg/kg (when using co-crystals, the weight calculation was based on free drug) for five consecutive days. Control rats were given 30% PEG400 only. All rats were housed in metabolic cages individually. Food and water were supplied ad libitum. Clinical observations (with attention to diarrhea symptoms) were performed twice daily. Food and water consumption were determined daily. Urine was collected pre-determined intervals: pre-dose, 0-4 hours, 4-8 hours, and 8-24 hours post-dose. Metabolites were analyzed and identified by LC/MS. The structures of the metabolites were confirmed by re-synthesis or isolation from the urine by preparative HPLC and NMR analysis. On day 6, all animals were sacrificed and gross necropsy was performed. The urine from two rats for each test compound was collected and pooled. The samples were diluted (1 mL urine in 4 mL of methanol) and analyzed by LC-MS: Waters 2695 Separations Module equipped with a Waters 2996 Photodiode Array Detector and a Waters Micromass ZQ Detector; Waters XTerra C18 3.5 μm, 20 mm×2.1 mm column, 1.0 mL/min, detection at 190-400 nm; 1.7 min gradient 10-50% A, followed by 1.8 min gradient 50-95% A, hold 1 min at 95% A; solvent A: 100% acetonitrile+0.045% formic acid; solvent B: Milli-Q water+0.1% formic acid. The urine samples were analyzed from 0-4 hours, 4-8 hours, 8-24 hours and 0-24 hours after administration. The ratio of metabolites was highly consistent within each time for each rat. The metabolites were identified by mass then re-synthesized to confirm their identity and the relative distribution was assayed using HPLC. […] See also FIGS. 1, 2A-2C, 3A-3D, and 4A-4C.

CYP3A4 = target: T3, CYP3A4 (Homo sapiens, UniProt P08684); assay: P450-Glo CYP screening kit, CYP3A4 inhibition; type: in vitro ADME; conditions: luminescence, read-out: IC50 3A4
T3 construct: purchased Promega
Text: as §1

T3 sequence (P08684 whole entry): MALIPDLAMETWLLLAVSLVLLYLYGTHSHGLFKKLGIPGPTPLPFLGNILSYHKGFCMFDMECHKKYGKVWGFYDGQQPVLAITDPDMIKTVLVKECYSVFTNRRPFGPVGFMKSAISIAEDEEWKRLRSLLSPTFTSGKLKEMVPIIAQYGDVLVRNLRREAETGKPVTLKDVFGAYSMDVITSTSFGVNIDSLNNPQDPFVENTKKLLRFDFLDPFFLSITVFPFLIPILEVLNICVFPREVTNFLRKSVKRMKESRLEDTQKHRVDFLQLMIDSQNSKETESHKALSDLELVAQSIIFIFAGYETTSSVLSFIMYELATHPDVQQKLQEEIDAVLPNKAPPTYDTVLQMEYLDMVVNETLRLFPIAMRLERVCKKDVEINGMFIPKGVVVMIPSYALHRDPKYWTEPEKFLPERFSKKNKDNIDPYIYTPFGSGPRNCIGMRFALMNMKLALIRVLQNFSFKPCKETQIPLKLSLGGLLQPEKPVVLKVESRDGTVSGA
T1 sequence (P33261 whole entry): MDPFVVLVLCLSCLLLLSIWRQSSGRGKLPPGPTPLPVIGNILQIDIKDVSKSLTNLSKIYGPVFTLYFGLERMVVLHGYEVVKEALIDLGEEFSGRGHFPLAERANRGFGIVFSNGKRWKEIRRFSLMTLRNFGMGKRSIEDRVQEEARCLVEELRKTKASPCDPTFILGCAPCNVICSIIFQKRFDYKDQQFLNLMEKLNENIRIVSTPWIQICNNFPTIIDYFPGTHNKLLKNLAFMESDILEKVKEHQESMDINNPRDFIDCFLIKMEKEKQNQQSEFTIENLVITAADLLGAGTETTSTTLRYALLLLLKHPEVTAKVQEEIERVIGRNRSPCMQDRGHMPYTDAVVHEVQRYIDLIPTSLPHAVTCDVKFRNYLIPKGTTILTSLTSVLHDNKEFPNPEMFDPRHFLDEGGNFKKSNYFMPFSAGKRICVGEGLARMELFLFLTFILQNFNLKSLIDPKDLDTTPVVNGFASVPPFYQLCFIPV

IC50 (CYP2C19) [µM] | IC50 (CYP1A2) [µM] | CL/F [1] [mL/min/kg] | AUC(0-t) [1] [ng·h/mL] | Cmax (mean ± SD) [1] [ng/mL] | t1/2 (mean ± SD) [1] [h] | tmax (mean ± SD) [1] [h] | Distribution of Metabolites in Urine (% of total), Peak 1 (Parent) [2] [%] | IC50 (CYP3A4) [µM] | Structure (SMILES) | Urinary Glucose Excretion in Dogs, 0-8 h (mean ± SD) (beagle dogs) [mg] | Urinary Glucose Excretion in Dogs, 0-24 h (mean ± SD) (beagle dogs) [mg] | Urinary Glucose Excretion in Dogs, 8-24 h (mean ± SD) (beagle dogs; 8-24 h (Table 4)) [mg]
168 | 500 to 1000 | 2.22 | 21200 ± 1880 | 2285 ± 697 | 6.05 ± 0.85 | 1.38 ± 0.75 | 45 | 500 to 1000 | [2H]C([2H])([2H])C([2H])([2H])Oc1ccc(Cc2cc([C@@H]3O[C@H](CO)[C@@H](O)[C@H](O)[C@H]3O)ccc2Cl)cc1 [24c, (2S,3R,4R,5S,6R)-2-(4-chloro-3-(4-(ethoxy-d5)benzyl)phenyl)-6-(hydroxymethyl)tetrahydro-2H-pyran-3,4,5-triol] | 3472 ± 622 | 11964 ± 2190 | –
61.1 | 426 | 4.5 | 11300 ± 2600 | 1603 ± 425 | 4.52 ± 0.98 | 0.88 ± 0.75 | 40 | ~400 | CCOc1ccc(Cc2cc([C@@H]3O[C@H](CO)[C@@H](O)[C@H](O)[C@H]3O)ccc2Cl)cc1 [Ref A, (2S,3R,4R,5S,6R)-2-(4-chloro-3-(4-ethoxybenzyl)phenyl)-6-(hydroxymethyl)tetrahydro-2H-pyran-3,4,5-triol, reference compound] | – | – | –
50 to 100 | ~500 | 3.2 | 15300 ± 2380 | 1830 ± 365 | 5.14 ± 1.28 | 1.69 ± 0.59 | 55 | ~1000 | [2H]C([2H])(c1ccc(OCC)cc1)c1cc([C@@H]2O[C@H](CO)[C@@H](O)[C@H](O)[C@H]2O)ccc1Cl [compound 9, (2S,3R,4R,5S,6R)-2-(4-chloro-3-((4-ethoxyphenyl)methyl-d2)phenyl)-6-(hydroxymethyl)tetrahydro-2H-pyran-3,4,5-triol] | 3396 ± 442 | 10228 ± 895 | 6832 ± 2555
